Literature values, collected in US20190167750A1, “NUTRITIONAL SUPPLEMENTS FOR INCREASING MALE TESTOSTERONE LEVELS” (Innovus Pharmaceuticals, Inc., priority 2017, published 2019).

Legend:
[1] = target: P-glycoprotein (Homo sapiens, UniProt P08183)
[2] = target: human CYP3A4 (Homo sapiens, UniProt P08684)
Sequence of human CYP3A4 (P08684 whole entry): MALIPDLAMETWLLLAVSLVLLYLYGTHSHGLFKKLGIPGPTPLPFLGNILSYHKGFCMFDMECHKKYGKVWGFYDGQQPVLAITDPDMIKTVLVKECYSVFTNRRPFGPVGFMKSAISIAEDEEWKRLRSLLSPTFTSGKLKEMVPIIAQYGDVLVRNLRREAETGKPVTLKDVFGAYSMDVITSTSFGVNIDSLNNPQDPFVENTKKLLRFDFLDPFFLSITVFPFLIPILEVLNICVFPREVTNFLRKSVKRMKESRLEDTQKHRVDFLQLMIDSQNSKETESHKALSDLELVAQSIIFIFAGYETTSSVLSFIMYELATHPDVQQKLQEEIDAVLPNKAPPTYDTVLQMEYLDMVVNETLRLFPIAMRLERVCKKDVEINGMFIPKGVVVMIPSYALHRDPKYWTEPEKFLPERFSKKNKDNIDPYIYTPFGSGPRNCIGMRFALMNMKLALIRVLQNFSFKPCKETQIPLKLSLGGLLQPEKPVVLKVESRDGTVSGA

Sequence of P-glycoprotein (P08183 whole entry): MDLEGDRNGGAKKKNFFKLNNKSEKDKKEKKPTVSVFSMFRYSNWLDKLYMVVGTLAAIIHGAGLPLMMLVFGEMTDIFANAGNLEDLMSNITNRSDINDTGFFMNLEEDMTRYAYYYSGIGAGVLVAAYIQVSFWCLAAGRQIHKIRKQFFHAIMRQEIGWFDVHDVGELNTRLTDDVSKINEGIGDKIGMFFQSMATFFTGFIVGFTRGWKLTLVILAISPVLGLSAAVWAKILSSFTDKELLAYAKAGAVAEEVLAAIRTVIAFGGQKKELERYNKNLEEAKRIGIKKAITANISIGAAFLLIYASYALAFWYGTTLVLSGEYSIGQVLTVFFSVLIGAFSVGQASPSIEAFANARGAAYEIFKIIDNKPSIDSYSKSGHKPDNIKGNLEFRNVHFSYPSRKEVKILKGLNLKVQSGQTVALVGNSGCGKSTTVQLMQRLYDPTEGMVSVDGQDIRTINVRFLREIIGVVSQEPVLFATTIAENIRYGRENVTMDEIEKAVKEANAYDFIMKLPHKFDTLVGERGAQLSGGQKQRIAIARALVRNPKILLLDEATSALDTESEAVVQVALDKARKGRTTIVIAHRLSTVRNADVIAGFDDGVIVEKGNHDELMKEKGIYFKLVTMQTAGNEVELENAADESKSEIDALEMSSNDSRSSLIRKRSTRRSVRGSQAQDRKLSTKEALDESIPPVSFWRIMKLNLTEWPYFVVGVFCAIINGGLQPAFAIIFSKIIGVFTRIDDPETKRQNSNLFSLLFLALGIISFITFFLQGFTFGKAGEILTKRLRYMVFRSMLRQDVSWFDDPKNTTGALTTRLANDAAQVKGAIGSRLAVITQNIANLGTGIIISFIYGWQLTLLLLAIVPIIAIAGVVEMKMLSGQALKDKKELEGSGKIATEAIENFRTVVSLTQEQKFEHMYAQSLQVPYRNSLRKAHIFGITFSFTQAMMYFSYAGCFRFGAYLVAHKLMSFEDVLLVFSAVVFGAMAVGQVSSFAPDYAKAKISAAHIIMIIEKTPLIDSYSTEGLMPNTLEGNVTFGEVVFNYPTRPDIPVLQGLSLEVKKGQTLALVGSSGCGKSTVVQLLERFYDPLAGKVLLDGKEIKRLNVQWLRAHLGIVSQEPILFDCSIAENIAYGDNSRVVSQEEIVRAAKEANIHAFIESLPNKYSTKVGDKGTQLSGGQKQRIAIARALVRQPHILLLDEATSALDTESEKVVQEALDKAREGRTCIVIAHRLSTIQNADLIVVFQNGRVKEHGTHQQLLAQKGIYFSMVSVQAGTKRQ

O=C(/C=C/C=C/c1ccc2c(c1)OCO2)N1CCCCC1 [Bioperine, (2E,4E)-5-(1,3-benzodioxol-5-yl)-1-(piperidin-1-yl)penta-2,4-dien-1-one]
inhibition of P-glycoprotein [1]: inhibits | inhibition of human CYP3A4 [2]: inhibits
